This passage reports MIC results from patent publication US4717767A, “7-amino-3-(pyrazinylmethyl) or (pyridazinylmethyl)-cephalosporins” (Toyama Chemical Co., Ltd., priority 1982, dated 1988).

In brackets after ≈: the same amount, converted by molar mass. Structures can show the parent of a compound that is named as a salt. Where two headings read alike, the source gives them in different places.

Holding throughout (assay type): cell-based
The test system of one test is E. coli TK-3. Put plainly: Antibacterial activity (MIC), E. coli TK-3. As to conditions: Escherichia coli. The source says:
(§1) The amount of the inoculated bacteria was 10^4 cells/plate (10^6 cells/ml).

A further test deals with Ser. marcescens W-134. In words: Antibacterial activity (MIC), Ser. marcescens W-134. The conditions noted are these: Serratia marcescens.
From the text: as §1

Another test relates to E. coli NIHJ. Put plainly: Antibacterial activity (MIC), E. coli NIHJ. As to conditions: Escherichia coli; Heart Infusion agar, 37° C., 20 hours, 10^4 cells/plate (10^6 cells/ml).
From the text: as §1

In another test the test system is Pro. vulgaris GN76. Put plainly: Antibacterial activity (MIC), Pro. vulgaris GN76. As to conditions: Proteus vulgaris, cephalosporinase-producing strain, Heart Infusion agar, 37° C., 20 hours, 10^6 cells/ml.
From the text: as §1

A further test has as its system Kl. pneumoniae Y-50. In words: Antibacterial activity (MIC), Kl. pneumoniae Y-50. As to conditions: Klebsiella pneumoniae, Y50; Heart Infusion agar, 37° C., 20 hours, 10^6 cells/ml.
From the text: as §1

The next test relates to Cit. freundii N-7. Put plainly: Antibacterial activity (MIC), Cit. freundii N-7. As to conditions: Citrobacter freundii.
From the text: as §1

For another test, the system named is Ser. marcescens IID620. In words: Antibacterial activity (MIC), Ser. marcescens IID620. As to conditions: Serratia marcescens.
From the text: as §1

For another test, the system named is Pro. mirabilis T-111. Put plainly: Antibacterial activity (MIC), Pro. mirabilis T-111. As to conditions: Proteus mirabilis, T111; Heart Infusion agar, 37° C., 20 hours, 10^6 cells/ml; read-out: MIC.
From the text: as §1

The test system of a further test is Pro. morganii T-216. In words: Antibacterial activity (MIC), Pro. morganii T-216. As to conditions: Morganella morganii, T216; Heart Infusion agar, 37° C., 20 hours, 10^6 cells/ml.
From the text: as §1

[1] abbreviates: TK3, penicillinase-producing strain, Heart Infusion agar, 37° C., 20 hours, 10^6 cells/ml, read-out: MIC.
[2] abbreviates: N7, Heart Infusion agar, 37° C., 20 hours, 10^6 cells/ml, read-out: MIC.
Setting [3] is: W134, Heart Infusion agar, 37° C., 20 hours, 10^6 cells/ml, read-out: MIC.
The mark [4] stands for this setting: IID620, Heart Infusion agar, 37° C., 20 hours, 10^6 cells/ml, read-out: MIC.

One may read the MIC as the least concentration at which growth counts as inhibited.

Regarding `CO/N=C(\C(=O)NC1C(=O)N2C(C(=O)O)=C(Cn3ccncc3=O)CSC12)c1csc(N)n1` (stereo not drawn) [J, trifluoroacetic acid salt of 7-[2-(2-aminothiazol-4-yl)-2-(syn)-methoxyiminoacetamido]-3-{[1-(2-oxo-1,2-dihydropyrazinyl)]methyl}-Δ^3-cephem-4-carboxylic acid], the MIC in the test with E. coli TK-3 (setting [1]) is 0.2 µg/mL; against Ser. marcescens W-134 (W134, 20 h), 0.39 µg/mL; against E. coli NIHJ it was not above 0.1 µg/mL; in the test with Pro. vulgaris GN76 it was 0.78 µg/mL; in the test with Kl. pneumoniae Y-50, not above 0.1 µg/mL; with Cit. freundii N-7 (setting [2]), 0.78 µg/mL. Moreover, the MIC was not above 0.1 µg/mL with Ser. marcescens IID620 (IID620, 20 h); 0.2 µg/mL with Pro. mirabilis T-111; not above 0.1 µg/mL in the test with Pro. morganii T-216.

As to `CO/N=C(\C(=O)NC1C(=O)N2C(C(=O)O)=C(Cn3[nH]c(=O)ccc3=O)CSC12)c1csc(N)n1` (stereo not drawn) [K, trifluoroacetic acid salt of 7-[2-(2-aminothiazol-4-yl)-2-(syn)-methoxyiminoacetamido]-3-{[1-(3,6-dioxo-1,2,3,6-tetrahydropyridazinyl)]methyl}-Δ^3-cephem-4-carboxylic acid], the MIC against E. coli TK-3 (TK3, 20 h) was 0.2 µg/mL; in the test with Ser. marcescens W-134 (setting [3]), not above 0.1 µg/mL; with E. coli NIHJ it was not above 0.1 µg/mL; in the test with Pro. vulgaris GN76, not above 0.1 µg/mL; against Kl. pneumoniae Y-50 it was not above 0.1 µg/mL; against Cit. freundii N-7 (N7, 20 h) it was 0.78 µg/mL. Besides, the minimal inhibitory concentration (MIC) with Ser. marcescens IID620 (setting [4]), with Pro. mirabilis T-111 and in the test with Pro. morganii T-216 was not above 0.1 µg/mL each time.

In the case of `Nc1nc(/C(=N/OCC(=O)O)C(=O)NC2C(=O)N3C(C(=O)O)=C(Cn4[nH]c(=O)ccc4=O)CSC23)cs1` (stereo not drawn) [L, formic acid salt of 7-[2-(2-aminothiazol-4-yl)-2-(syn)-carboxymethoxyiminoacetamido]-3-{[1-(3,6-dioxo-1,2,3,6-tetrahydropyridazinyl)]methyl}-Δ^3-cephem-4-carboxylic acid], the MIC in the test with E. coli TK-3 (setting [1]) was 0.78 µg/mL; in the test with Ser. marcescens W-134 (W134, 20 h) it was not above 0.1 µg/mL; in the test with E. coli NIHJ it was not above 0.1 µg/mL; in the test on Pro. vulgaris GN76, not above 0.1 µg/mL; with Kl. pneumoniae Y-50 it was 0.78 µg/mL; with Cit. freundii N-7 (N7, 20 h), 3.13 µg/mL. The MIC was 1.56 µg/mL in the test on Ser. marcescens IID620 (IID620, 20 h); not above 0.1 µg/mL in the test with Pro. mirabilis T-111; not above 0.1 µg/mL against Pro. morganii T-216.

As to `CO/N=C(\C(=O)NC1C(=O)N2C(C(=O)O)=C(Cn3nc(C)ccc3=O)CSC12)c1csc(N)n1` (stereo not drawn) [M, trifluoroacetic acid salt of 7-[2-(2aminothiazol-4-yl)-2-(syn)-methoxyiminoacetamido]-3-{[1-(3-methyl-6-oxo-1,6-dihydropyridazinyl)]methyl}-Δ^3-cephem-4-carboxylic acid], the MIC in the test on E. coli TK-3 (setting [1]) is 0.2 µg/mL; in the test on Ser. marcescens W-134 (W134, 20 h) it was 0.78 µg/mL; with E. coli NIHJ it was not above 0.1 µg/mL; in the test on Pro. vulgaris GN76, 0.2 µg/mL; with Kl. pneumoniae Y-50, 0.2 µg/mL; in the test with Cit. freundii N-7 (setting [2]), 0.78 µg/mL. In addition, the MIC in the test with Ser. marcescens IID620 (setting [4]), with Pro. mirabilis T-111 and against Pro. morganii T-216 was 0.2 µg/mL each time.

As for `Cc1ccc(=O)n(CC2=C(C(=O)O)N3C(=O)C(NC(=O)/C(=N\OCC(=O)O)c4csc(N)n4)C3SC2)n1` (stereo not drawn) [N], the MIC with E. coli TK-3 (setting [1]) was 0.2 µg/mL (≈ 0.364 µM); in the test on Ser. marcescens W-134 (setting [3]) it was not above 0.1 µg/mL; with E. coli NIHJ it was not above 0.1 µg/mL; in the test with Pro. vulgaris GN76 it was not above 0.1 µg/mL; in the test on Kl. pneumoniae Y-50, 0.39 µg/mL (≈ 0.71 µM); in the test with Cit. freundii N-7 (N7, 20 h) it was 0.78 µg/mL (≈ 1.42 µM). For the same molecule, the MIC in the test on Ser. marcescens IID620 (setting [4]), with Pro. mirabilis T-111 and against Pro. morganii T-216 was not above 0.1 µg/mL in each case.
